Measurements taken from patent US20250042890A1, “METHIONINE ADENOSYLTRANSFERASE 2a (MAT2A) INHIBITORS AND USES THEREOF” (Insilico Medicine IP Limited, priority 2021, published 2025).

Molecular target: MAT2A (Homo sapiens (Human), UniProt P31153)
Test: MAT2A Biochemical Assay
Conditions: Biomol Green readout O.D.620; 1 uM start, 3-fold dilution, 10 doses; read-out: MAT2A enzymatic IC50
Procedure: Example A: MAT2A Biochemical Assay
Compounds described herein were tested as follows:
• (1). Prepared 1×Assay buffer. • (2). Preparation of compound concentration gradient: the compounds test condition were 1 uM start, 3-fold dilution, 10 doses, singlet or duplicate. 100× concentration compounds were prepared in 384-well plate. Then used Echo 550 to transfer 250 nl to a 384-reaction plate for later use. Added 250 nl of 100% DMSO to the negative and positive control wells. • (3). Prepared 1.67× final concentration enzyme solution with 1×Assay buffer. • (4). Added 15 μl of 1.67× Enzyme solution to the compound wells and positive control wells; added 15 μl of 1 Assay buffer to the negative control wells. • (5). Centrifuged at 1000 rpm for 30 seconds and incubate for 15 minutes. • (6). Prepared 2.5× final concentration Substrate mix solution with 1×Assay buffer. • (7). Added 10 μl of 2.5× final concentration Substrate mix solution to start the reaction. • (8). Centrifuged at 1000 rpm for 30 seconds and incubate for 150 minutes. • (9). Added 50 μl Biomol Green to stop the reaction, centrifuge at 1000 rpm for 30 seconds and incubate for 15 minutes. read O.D.620, process data.
• (1) Using GraphPad Prism 5. • (2) % Inh=(Max signal−Compound signal)/(Max signal−Min signal)*100. • (3) Max signal was obtained from the positive control wells. • (4) Min signal was obtained from the negative control wells.

MAT2A, sequence (P31153 whole entry, species assumed): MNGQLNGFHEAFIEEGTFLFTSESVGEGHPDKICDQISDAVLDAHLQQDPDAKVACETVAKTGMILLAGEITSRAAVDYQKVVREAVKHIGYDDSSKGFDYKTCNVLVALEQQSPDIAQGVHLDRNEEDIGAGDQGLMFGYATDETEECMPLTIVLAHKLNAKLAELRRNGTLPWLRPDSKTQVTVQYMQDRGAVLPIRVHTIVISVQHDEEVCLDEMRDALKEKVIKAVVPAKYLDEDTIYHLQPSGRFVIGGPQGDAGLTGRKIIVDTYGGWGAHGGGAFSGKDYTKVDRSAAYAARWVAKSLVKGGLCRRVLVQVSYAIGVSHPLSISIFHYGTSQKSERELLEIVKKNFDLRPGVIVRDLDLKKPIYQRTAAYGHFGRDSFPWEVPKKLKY

Structure (SMILES)	IC50
O=c1nc(NCC#CC2CC2)c2ccc(Cl)cc2n1-c1cccnc1 [Example 2, 7-chloro-4-((3-cyclopropylprop-2-yn-1-yl)amino)-1-(pyridin-3-yl)quinazolin-2 (1H)-one]	< 50 nM
C#CCCCNc1nc(=O)n(-c2cccnc2)c2cc(Cl)ccc12 [Example 6, 7-chloro-4-(pent-4-yn-1-ylamino)-1-(pyridin-3-yl)quinazolin-2 (1H)-one]	< 50 nM
C#CC1(Nc2nc(=O)n(-c3cnccn3)c3cc(C(F)(F)F)ccc23)CC1 [Example 69, 4-((1-ethynylcyclopropyl)amino)-1-(pyrazin-2-yl)-7-(trifluoromethyl)quinazolin-2 (1H)-one]	< 50 nM
C#CCNc1nc(=O)n(-c2cccnc2C)c2cc(Cl)cc(OC)c12 [Example 22, 7-chloro-5-methoxy-1-(2-methylpyridin-3-yl)-4-(prop-2-yn-1-ylamino)quinazolin-2 (1H)-one]	< 50 nM
C#CCNc1nc(=O)n(-c2cccnc2C)c2cc(C(F)(F)F)cc(OC(F)F)c12 [Example 40, 5-(difluoromethoxy)-1-(2-methylpyridin-3-yl)-4-(prop-2-yn-1-ylamino)-7-(trifluoromethyl)quinazolin-2 (1l)-one]	< 50 nM
C#CCN(C)c1nc(=O)n(-c2cccnc2)c2cc(C(F)(F)F)ccc12 [Example 51]	< 50 nM
C#CCNc1nc(=O)n(-c2ccccc2Cl)c2cc(Cl)ccc12 [Example 10, 7-chloro-1-(2-chlorophenyl)-4-(prop-2-yn-1-ylamino)quinazolin-2 (1H)-one]	< 50 nM
C#CC1(Nc2nc(=O)n(-c3nccnc3C)c3cc(Cl)cc(OC)c23)CC1 [Example 25, 7-chloro-4-((1-ethynylcyclopropyl)amino)-5-methoxy-1-(3-methylpyrazin-2-yl)quinazolin-2 (1H)-one]	< 50 nM
C#CC1(Nc2nc(=O)n(-c3cccnc3C)c3cc(Cl)cc(OC)c23)CCC1 [Example 28]	< 50 nM
C#CCNc1nc(=O)n(-c2cccnc2)c2cc(Br)ccc12 [Example 18, 7-bromo-4-(prop-2-yn-1-ylamino)-1-(pyridin-3-yl)quinazolin-2 (1H)-one]	< 50 nM
C#CCNc1nc(=O)n(-c2nccnc2C)c2cc(Cl)cc(OC)c12 [Example 23, 7-chloro-5-methoxy-1-(3-methylpyrazin-2-yl)-4-(prop-2-yn-1-ylamino)quinazolin-2 (1H)-one]	< 50 nM
C#CC(C)Nc1nc(=O)n(-c2cccnc2C)c2cc(Cl)cc(OC)c12 (stereo not shown) [Example 26]	< 50 nM
C#CC1(Nc2nc(=O)n(-c3cccnc3)c3cc(C(F)(F)F)cc(OC)c23)CC1 [Example 47, 4-((1-ethynylcyclopropyl)amino)-5-methoxy-1-(pyridin-3-yl)-7-(trifluoromethyl)quinazolin-2 (1B)-one]	< 50 nM
C#CC1(Nc2nc(=O)n(-c3cccnc3)c3nc(C(F)(F)F)ccc23)CC1 [Example 68, 4-((1-ethynylcyclopropyl)amino)-1-(pyridin-3-yl)-7-(trifluoromethyl)pyrido[2,3-d]pyrimidin-2 (1H)-one]	< 50 nM
C#CCNc1nc(=O)n(-c2cccnc2)c2cc(C(F)(F)F)cc(OC)c12 [Example 34, 5-methoxy-4-(prop-2-yn-1-ylamino)-1-(pyridin-3-yl)-7-(trifluoromethyl)quinazolin-2 (1H)-one]	< 50 nM
C#CC1CCN(c2nc(=O)n(-c3ccccc3Cl)c3cc(Cl)ccc23)CC1 [Example 13, 7-chloro-1-(2-chlorophenyl)-4-(4-ethynylpiperidin-1-yl)quinazolin-2 (1H)-one]	> 1000 nM
C#CC1(Nc2nc(=O)n(-c3cccnn3)c3nc(C(F)(F)F)ccc23)CC1 [Example 70, 4-((1-ethynylcyclopropyl)amino)-1-(pyridazin-3-yl)-7-(trifluoromethyl)pyrido[2,3-d]pyrimidin-2 (1H)-one]	< 50 nM
C#CCNc1nc(=O)n(-c2cccnc2C)c2cc(Br)cc(OC)c12 [Example 19, 7-bromo-5-methoxy-1-(2-methylpyridin-3-yl)-4-(prop-2-yn-1-ylamino)quinazolin-2 (1H)-one]	< 50 nM
C=CCNc1nc(=O)n(-c2cccnc2)c2cc(C(F)(F)F)ccc12 [Example 76]	< 50 nM
C#CCNc1nc(=O)n(-c2cccnc2)c2cc(Cl)cc(F)c12 [Example 29, 7-chloro-5-fluoro-4-(prop-2-yn-1-ylamino)-1-(pyridin-3-yl)quinazolin-2 (1H)-one]	< 50 nM
C#CCNc1nc(=O)n(-c2cccnc2C)c2cc(C(F)(F)F)cc(OC)c12 [Example 36, 5-methoxy-1-(2-methylpyridin-3-yl)-4-(prop-2-yn-1-ylamino)-7-(trifluoromethyl)quinazolin-2 (1H)-one]	< 50 nM
C#CCNc1nc(=O)n(-c2cccnc2C)c2cc(Cl)cc(F)c12 [Example 30, 7-chloro-5-fluoro-1-(2-methylpyridin-3-yl)-4-(prop-2-yn-1-ylamino)quinazolin-2 (1H)-one]	< 50 nM
C=CCNc1nc(=O)n(-c2cccnc2C)c2cc(C(F)(F)F)cc(OC)c12 [Example 77]	< 50 nM
C#CCNc1nc(=O)n(-c2cnccn2)c2cc(C(F)(F)F)ccc12 [Example 53, 4-(prop-2-yn-1-ylamino)-1-(pyrazin-2-yl)-7-(trifluoromethyl)quinazolin-2 (1H)-one]	< 50 nM
C#CC1(Nc2nc(=O)n(-c3cccnc3C)c3cc(Cl)cc(F)c23)CC1 [Example 31, 7-chloro-4-((1-ethynylcyclopropyl)amino)-5-fluoro-1-(2-methylpyridin-3-yl)quinazolin-2 (11H)-one]	< 50 nM
C#CCNc1nc(=O)n(-c2cccnc2C)c2cc(C(F)(F)F)ccc12 [Example 33, 1-(2-methylpyridin-3-yl)-4-(prop-2-yn-1-ylamino)-7-(trifluoromethyl)quinazolin-2 (1H)-one]	< 50 nM
C#CC(C)Nc1nc(=O)n(-c2cccnc2C)c2cc(C(F)(F)F)cc(OC)c12 (stereo not shown) [Example 37]	< 50 nM
C#CCNc1nc(=O)n(-c2c(C)ccnc2C)c2cc(C(F)(F)F)ccc12 [Example 52, 1-(2,4-dimethylpyridin-3-yl)-4-(prop-2-yn-1-ylamino)-7-(trifluoromethyl)quinazolin-2 (11H)-one]	< 50 nM
C=CCNc1nc(=O)n(-c2cccnc2)c2cc(Cl)cc(OC)c12 [Example 73]	< 50 nM
O=c1nc(NCC#CCN2CCOCC2)c2ccc(C(F)(F)F)cc2n1-c1cccnc1 [Example 14, 4-((4-morpholinobut-2-yn-1-yl)amino)-1-(pyridin-3-yl)-7-(trifluoromethyl)quinazolin-2 (1H)-one]	< 50 nM

Next, values leading:

IC50	Structure (SMILES)
< 50 nM	C#CCNc1nc(=O)n(-c2cccnn2)c2nc(C(F)(F)F)ccc12 [Example 63, 4-(prop-2-yn-1-ylamino)-1-(pyridazin-3-yl)-7-(trifluoromethyl)pyrido[2,3-d]pyrimidin-2 (1H)-one]
< 50 nM	C#CCNc1nc(=O)n(-c2cnccn2)c2cc(Cl)cc(OC)c12 [Example 21, 7-chloro-5-methoxy-4-(prop-2-yn-1-ylamino)-1-(pyrazin-2-yl)quinazolin-2 (1H)-one]
< 50 nM	C#CC(C)Nc1nc(=O)n(-c2cccnc2)c2cc(Cl)cc(OC)c12 (stereo not shown) [Example 65]
< 50 nM	C#CCNc1nc(=O)n(-c2cccnc2C(C)C)c2cc(C(F)(F)F)ccc12 [Example 45, 1-(2-isopropylpyridin-3-yl)-4-(prop-2-yn-1-ylamino)-7-(trifluoromethyl)quinazolin-2 (1H)-one]
< 50 nM	C#CCNc1nc(=O)n(-c2cccnc2)c2nc(C(F)(F)F)ncc12 [Example 61, 4-(prop-2-yn-1-ylamino)-1-(pyridin-3-yl)-7-(trifluoromethyl)pyrimido[4,5-d]pyrimidin-2 (1H)-one]
< 50 nM	C#CC1(Nc2nc(=O)n(-c3cccnc3)c3cc(C(F)(F)F)ccc23)CC1 [Example 67]
< 50 nM	C=CCNc1nc(=O)n(-c2cccnc2C)c2cc(Cl)cc(OC)c12 [Example 74]
< 50 nM	C#CC1(Nc2nc(=O)n(-c3cccnc3)c3cc(Cl)cc(OC)c23)CC1 [Example 66]
< 50 nM	C#CC1(Nc2nc(=O)n(-c3cccnc3C)c3cc(C(F)(F)F)cc(OC)c23)CC1 [Example 49]
< 50 nM	C#CCNc1nc(=O)n(-c2cccnc2)c2cc(C(F)(F)F)ccc12 [Example 7, 4-(prop-2-yn-1-ylamino)-1-(pyridin-3-yl)-7-(trifluoromethyl)quinazolin-2 (1H)-one]
< 50 nM	C#CCNc1nc(=O)n(-c2nccnc2C)c2cc(C(F)(F)F)cc(OC)c12 [Example 48, 5-methoxy-1-(3-methylpyrazin-2-yl)-4-(prop-2-yn-1-ylamino)-7-(trifluoromethyl)quinazolin-2 (1H)-one]
< 50 nM	C#CC(C)Nc1nc(=O)n(-c2cccnc2)c2cc(C(F)(F)F)ccc12 (stereo not shown) [Example 64]
< 50 nM	C#CC(C)Nc1nc(=O)n(-c2cccnc2)c2cc(C(F)(F)F)cc(OC)c12 (stereo not shown) [Example 35, 4-(but-3-yn-2-ylamino)-5-methoxy-1-(pyridin-3-yl)-7-(trifluoromethyl)quinazolin-2 (1H)-one]
